Measured values reported in PubChem BioAssay AID2060615 (Molecular Pharmacology Branch, DTP, NCI, 2025).
Values joined by “and” are separate entries in the source; they are usually repeats but may differ in a detail not shown here. Equal values may be shown once.

Test system: 496974-208-R-J2-PDC complex spheroids, growth % test/control
Test: Anticancer human tumor 496974-208-R-J2-PDC patient-derived pancreatic carcinoma cell line growth inhibition [CLK]
Settings: for viability, T/C: stronger effect = lower value; active means viability on the fitted dose curve at most 10% of control; inactive means the rest
Text: A high-throughput screen of multi-cell type tumor spheroids was designed to identify active combinations of […] and targeted small molecules. Complex spheroids include a stromal component modeled by human endothelial cells (HUVEC) and fibroblasts modeled by human mesenchymal stem cells (MSCs). The concentration ranges selected for each drug and investigational agent were based upon clinically achievable concentrations if the clinical Cmax of the agent was known.
Compounds. The drugs and investigational agents: cirtuvivint (SM08502; NSC835563), CC-671 (NSC850746), vemurafenib (NSC761431), tapotoclax (NSC804041), sotorasib (NSC818433), adagrasib (NSC831453), MRTX-1133 (NSC836407), BAY2416964 (NSC825713), copanlisib (NSC816437), inavolisib (NSC800729), abemaciclib (NSC768073), osimertinib (NSC779217), entinostat (NSC756642), eltanexor (KPT-8602, NSC794443), venetoclax (NSC766270), ceralasertib (NSC777638), bortezomib (NSC756655), olaparib (NSC753686), talazoparib (NSC767125), alisertib (NSC759677), peposertib (NSC802822), gemcitabine (NSC613327), 5-fluorouracil (NSC19893), SN-38 (NSC673596), oxaliplatin (NSC266046), paclitaxel (NSC125973), and doxorubicin (NSC123127), were obtained from the National Cancer Institute (NCI) Developmental Therapeutics Program Chemical Repository. The FDA-approved anticancer drug set is available from the Developmental Therapeutics Program at https://dtp.cancer.gov/organization/dscb/obtaining/available plates.htm. […] The stock solutions were prepared in dimethyl sulfoxide (DMSO, Sigma-Aldrich, St. Louis, MO, cat. D2650), except for the platinum complexes which were prepared in saline (Quality Biological, Gaithersburg, MD, cat. 114-055-101), at 800-fold the tested concentration and stored at -70 degrees C prior to their use. All drugs and investigational agents were tested over a range starting from a high concentration at or near the clinical Cmax and decreasing in half-log increments. If the clinical Cmax for an agent had not been determined, the highest concentration tested was 10 microM.
Cell Culture. All cells were maintained in an incubator at 37 degrees C and 5% CO2 with 95% humidity. The PDC lines were cultured according to standard operating procedures established by the NCI PDMR. Briefly, all PDCs were thawed and cultured in Matrigel-coated flasks prepared with a working solution of 1X Ham's F-12 nutrient mix, without supplementation (Invitrogen, Waltham, MA, cat. 11765054), 100 U/mL penicillin-streptomycin (Invitrogen, cat. 15140122), and 2.5% Matrigel (Corning Inc., Corning, NY, cat. 354248) for the first three passages. The 947758-054-R-J2-PDC line was cultured in 6B/Colon 1A media, which includes advanced DMEM/F-12 (Thermo Fisher Scientific, cat. 12634028), 10 mM HEPES (Thermo Fisher Scientific, cat. 15630080), 1X GlutaMAX supplement (Thermo Fisher Scientific, cat. 35050061), 0.1 mg/mL primocin (InvivoGen, cat. ant-pm-2), 10% defined fetal bovine serum, heat inactivated (HyClone Laboratories Inc., cat. SH30070.03HI), 1.25 mM N-Acetyl-L-cysteine (Sigma-Aldrich, cat. A9165), 10 mM nicotinamide (Sigma-Aldrich, cat. N0636), 1X B-27 supplement (Thermo Fisher Scientific, cat. 17504044), 1X N-2 supplement (Thermo Fisher Scientific, cat. 17502048), and 10 microM Y-27632 dihydrochloride (Tocris Bioscience, cat. 1254). The 876862-298-R-J1-PDC was cultured in 6E media, which includes all 6B/Colon 1A media components plus 50% L-WRN conditioned media (ATCC, cat. CRL-3276), 50 ng/mL recombinant human EGF recombinant protein (hEGF; Thermo Fisher Scientific, cat. PHG0311), 10 ng/mL recombinant human fibroblast growth factor 10 (hGFG-10; PeproTech, cat. 100-26), 1 ng/mL recombinant human fibroblast growth factor 2 (hFGF-2; PeproTech, cat. 100-18B), and 1 µM prostaglandin E2 (PGE2; Tocris, cat. 2296). The 227483-062-R1-J1-PDC line was cultured in Panc media, containing all 6E components except hFGF-2, with the addition of 500 nM SB-431542 (Selleckchem, cat. S1067) and 10 nM gastrin (Tocris, cat. 3006). […]

[1] = curve of first compound, second compound 0.0316 µM
[2] = curve of first compound, second compound 0.1 µM
[3] = curve of first compound, second compound 0.316 µM
[4] = curve of first compound, second compound 1 µM
[5] = curve of first compound, second compound 3.16 µM
[6] = curve of first compound, second compound 10 µM
[7] = second compound 0.0316 µM, first compound 0.0316 µM
[8] = second compound 0.0316 µM, first compound 0.1 µM
[9] = second compound 0.0316 µM, first compound 0.316 µM
[10] = second compound 0.0316 µM, first compound 1 µM
[11] = second compound 0.1 µM, first compound 0.0316 µM
[12] = second compound 0.1 µM, first compound 0.1 µM
[13] = second compound 0.1 µM, first compound 0.316 µM
[14] = second compound 0.1 µM, first compound 1 µM
[15] = second compound 0.316 µM, first compound 0.0316 µM
[16] = second compound 0.316 µM, first compound 0.1 µM
[17] = second compound 0.316 µM, first compound 0.316 µM
[18] = second compound 0.316 µM, first compound 1 µM
[19] = second compound 1 µM, first compound 0.0316 µM
[20] = second compound 1 µM, first compound 0.1 µM
[21] = second compound 1 µM, first compound 0.316 µM
[22] = second compound 1 µM, first compound 1 µM
[23] = second compound 3.16 µM, first compound 0.0316 µM
[24] = second compound 3.16 µM, first compound 0.1 µM
[25] = second compound 3.16 µM, first compound 0.316 µM
[26] = second compound 3.16 µM, first compound 1 µM
[27] = second compound 10 µM, first compound 0.0316 µM
[28] = second compound 10 µM, first compound 0.1 µM
[29] = second compound 10 µM, first compound 0.316 µM
[30] = second compound 10 µM, first compound 1 µM
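Further: spheroids exposed to the drugs for 7 days before readout.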
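Wherever viability, T/C is given: 100% = DMSO vehicle control wells.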

COc1c(OCCCN2CCOCC2)ccc2c3n(c(=NC(=O)c4cnc(N)nc4)nc12)CCN3 + CNC(=O)c1ccc(Nc2nc(OC3CCCC3)c3c(-c4ccc5nc(C)oc5c4)c[nH]c3n2)c(OC)c1
17.4 nM: IC50 [1]
4.74 nM: IC50 [5]
16.2 nM: IC50 [2]
7.96 nM: IC50 [4]
active: viability, T/C [9] 9.14% | viability, T/C [10] 4.1% | viability, T/C [17] 11.2% | viability, T/C [18] 5.48% | viability, T/C [21] 12.3% | viability, T/C [22] 5.46% | viability, T/C [25] 8.87% | viability, T/C [26] 6.58% | viability, T/C [29] 9.58% | viability, T/C [30] 3.59%
inactive: viability, T/C (second compound 0.0316 µM, first compound 0.00316 µM) 88.2% | viability, T/C (second compound 0.0316 µM, first compound 0.01 µM) 68.6% | viability, T/C [7] 29.4% | viability, T/C [8] 14.5% | viability, T/C (second compound 0.1 µM, first compound 0.00316 µM) 76.9% | viability, T/C (second compound 0.1 µM, first compound 0.01 µM) 64.2% | viability, T/C [11] 30.2% | viability, T/C [12] 16.1% | viability, T/C [13] 12.5% | viability, T/C [14] 7.78% | viability, T/C (second compound 0.316 µM, first compound 0.00316 µM) 70.3% | viability, T/C (second compound 0.316 µM, first compound 0.01 µM) 53.4% | viability, T/C [15] 24.8% | viability, T/C [16] 15.1% | viability, T/C (second compound 1 µM, first compound 0.00316 µM) 61.2% | viability, T/C (second compound 1 µM, first compound 0.01 µM) 47.7% | viability, T/C [19] 27.5% | viability, T/C [20] 14% | viability, T/C (second compound 3.16 µM, first compound 0.00316 µM) 54.4% | viability, T/C (second compound 3.16 µM, first compound 0.01 µM) 42% | viability, T/C [23] 26.1% | viability, T/C [24] 16.1% | viability, T/C (second compound 10 µM, first compound 0.00316 µM) 50% | viability, T/C (second compound 10 µM, first compound 0.01 µM) 37.7% | viability, T/C [27] 21.9% | viability, T/C [28] 12.4%
11.1 nM: IC50 [3]
3.25 nM: IC50 [6]

COC1C=CCC(C)C(C)S(=O)(=O)NC(=O)c2ccc3c(c2)N(CC2CCC21)CC1(CCCc2cc(Cl)ccc21)CO3 (stereo not given) + CN1CCN(c2cc(C(=O)Nc3cc4cc(-c5cnn(C)c5)ccc4cn3)ccn2)CC1
< 31.6 nM: IC50 [3] | IC50 [4] | IC50 [5] | IC50 [6]
inactive: viability, T/C [7] 93.4% | viability, T/C [8] 87.3% | viability, T/C [9] 86.7% | viability, T/C [10] 76.2% | viability, T/C (second compound 0.0316 µM, first compound 3.16 µM) 76.1% | viability, T/C (second compound 0.0316 µM, first compound 10 µM) 48.3% | viability, T/C [11] 79.9% | viability, T/C [12] 78.4% | viability, T/C [13] 75.4% | viability, T/C [14] 69.1% | viability, T/C (second compound 0.1 µM, first compound 3.16 µM) 66.3% | viability, T/C (second compound 0.1 µM, first compound 10 µM) 42%
9900 nM: IC50 [1]
6730 nM: IC50 [2]
active: viability, T/C [15] 6.55% | viability, T/C [16] 6.86% | viability, T/C [17] 6.27% | viability, T/C [18] 5.01% | viability, T/C (second compound 0.316 µM, first compound 3.16 µM) 6.46% | viability, T/C (second compound 0.316 µM, first compound 10 µM) 9.02% | viability, T/C [19] 0.46% | viability, T/C [20] 2.1% | viability, T/C [21] 1.64% | viability, T/C [22] 0.36% | viability, T/C (second compound 1 µM, first compound 3.16 µM) 0.6% | viability, T/C (second compound 1 µM, first compound 10 µM) 2.57% | viability, T/C [23] 0.56% | viability, T/C [24] 1.19% | viability, T/C [25] 0.48% | viability, T/C [26] 0.35% | viability, T/C (second compound 3.16 µM, first compound 3.16 µM) 3.56% | viability, T/C (second compound 3.16 µM, first compound 10 µM) 1.06% | viability, T/C [27] 1.5% | viability, T/C [28] 0.48% | viability, T/C [29] 0.41% | viability, T/C [30] 0.29% | viability, T/C (second compound 10 µM, first compound 3.16 µM) 3.22% | viability, T/C (second compound 10 µM, first compound 10 µM) 0.75%

CC(Nc1ccc2c(c1)OCCn1cc(N3C(=O)OCC3C(F)F)nc1-2)C(N)=O (stereo not given)
inactive: viability, T/C (compound 0.0316 µM) 89.2% and 89.5% | viability, T/C (compound 0.1 µM) 65.6% and 63.4% | viability, T/C (compound 0.316 µM) 39.2% and 36.6% | viability, T/C (compound 1 µM) 18.8% and 22.9% | viability, T/C (compound 3.16 µM) 13.1% and 14.9%
195 nM and 180 nM: IC50 (curve of compound)
7.32% and 10.9%: viability, T/C (compound 10 µM)

CC(CO)NC(=O)c1cc(-c2ccc(Cl)cc2)nn(-c2cnn(C)c2)c1=O (stereo not given)
8390 nM and > 10000 nM: IC50 (curve of compound)
inactive: viability, T/C (compound 0.0316 µM) 106% and 99.5% | viability, T/C (compound 0.1 µM) 105% and 97.1% | viability, T/C (compound 0.316 µM) 96.2% and 100% | viability, T/C (compound 1 µM) 85.5% and 96.2% | viability, T/C (compound 3.16 µM) 91.6% and 91.4% | viability, T/C (compound 10 µM) 42.6% and 52.9%

CNC(=O)c1ccc(Nc2nc(OC3CCCC3)c3c(-c4ccc5nc(C)oc5c4)c[nH]c3n2)c(OC)c1
inactive: viability, T/C (compound 0.0316 µM) 97.8% [middle of 7 runs] | viability, T/C (compound 0.1 µM) 85.7% [middle of 10 runs] | viability, T/C (compound 0.316 µM) 78.1% [middle of 10 runs] | viability, T/C (compound 1 µM) 70.6% [middle of 10 runs] | viability, T/C (compound 3.16 µM) 62.4% [middle of 10 runs] | viability, T/C (compound 10 µM) 57.3% [middle of 10 runs]
> 10000 nM: IC50 (compound alone, run of 09/19/2023)
